Laboratory results taken from article PMC5637554 (MedChemComm, 2017).

Molecular target: MDM2 (Homo sapiens, UniProt Q00987)
Assay: Fluorescence polarization
Format: binding
Settings: FP; 4-chloro-phenyl anchor instead of 6-chloro-indole

MDM2, sequence (Q00987 whole entry): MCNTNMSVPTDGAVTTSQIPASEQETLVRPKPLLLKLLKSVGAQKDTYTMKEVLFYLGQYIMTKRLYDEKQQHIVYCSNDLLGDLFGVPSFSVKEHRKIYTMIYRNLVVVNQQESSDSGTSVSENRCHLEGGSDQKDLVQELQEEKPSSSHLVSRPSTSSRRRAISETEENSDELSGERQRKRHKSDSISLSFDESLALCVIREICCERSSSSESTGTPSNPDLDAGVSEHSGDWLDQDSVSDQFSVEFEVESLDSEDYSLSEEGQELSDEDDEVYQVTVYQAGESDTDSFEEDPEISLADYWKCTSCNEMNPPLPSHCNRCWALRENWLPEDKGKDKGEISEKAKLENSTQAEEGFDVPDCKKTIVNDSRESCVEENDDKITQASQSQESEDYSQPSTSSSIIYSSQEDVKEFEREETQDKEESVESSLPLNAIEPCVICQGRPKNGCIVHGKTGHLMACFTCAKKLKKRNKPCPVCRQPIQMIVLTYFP

Structure (SMILES): CC(C)(C)NC(=O)C(c1ccc(Cl)cc1)N1C(=O)CC1c1ccc(OCc2ccccc2)cc1 (stereo not shown) [Compound 2g]
- activity against MDM2/X: did not show any activity
